Holding throughout (assay type): cell-based
Test [1] has as its target T1, hTRPM8 (Homo sapiens, UniProt Q7Z2W7).
T1 construct: expressed in transfected cells; host or cells: HEK293T
Description: whole-cell patch-clamp of hTRPM8 currents activated by menthol. To be noted: ROSA 50 μM; agonist menthol 30 μM (legend: 500 μM). The method, then: (§1) HEK293T cell line was obtained from the Cell Resource Center, Peking Union Medical College. HEK293T cells were maintained in Dulbecco’s modified Eagle’s medium (DMEM, Gibco) supplemented with 10% fetal bovine serum at 37 °C with 5% CO2. […] The next day, determine the plasmid transfection status by observing green fluorescence based on expression of enhanced GFP as an indicator. […] When conducting experiments on HEK293T cells transfected with G573S point mutant TRPV3 plasmid, we replaced culture medium with or without compounds after 4 h of transfection and then observed green fluorescence of HEK293T cell after 10 h. As for the relative fluorescence intensity, we convert the image to 8 bit grayscale using ImageJ (Https://imagej.net/software/fiji/downloads) and set an appropriate threshold value to reduce background noise and enhance the image contrast.
(§2) All patch-clamp recordings were conducted 16 to 24 h after transfection using an EPC10 amplifier powered by PatchMaster software (HEKA) (https://www.heka.com/downloads/downloads_main.html#down_patchmaster) at room temperature. […] Currents were recorded at a potential ramp from −100 mV to +100 mV for 1000 ms with 1000-ms intervals (for whole-cell recordings) or a persistent potential of −60 mV (inside-out patch recordings). […]
For orientation: In patch-clamp work, channel activity is measured electrically.

The test system of test [2] is HEK293T cells expressing hTRPV3. The test can be described thus: Hoechst 33342/propidium iodide double staining cell death assay. Particulars: inhibitor 20 μM added 1 h before Car 300 μM. As to the method: For cell death assay, HEK293T cells transfected with hTRPV3 were seeded in 6-well plates and randomly divided into different groups. TRPV3 and NF-κB inhibitors were added 1 h before the addition of Car. After administration of Car for 1 h, cell death was detected using Hoechst 33342/propidium iodide Double Stain Kit (Solarbio). After staining, cells were resuspended with PBS buffer. Five random view images in each group were taken under a microscope (Eclipse Ti, Nikon) and counted using ImageJ software (National Institutes of Health).

Test [3] concerns the target T2, hTRPV1 (Homo sapiens, UniProt Q8NER1).
T2 construct: expressed in transfected cells; host or cells: HEK293T
The test can be described thus: whole-cell patch-clamp of hTRPV1 currents activated by capsaicin. Particulars: ROSA 50 μM; agonist capsaicin 1 μM; read-out: inhibition of TRPV1 currents. The method, then:
as §1, §2

In test [4] the target is T3, TRPV3 T665A (Homo sapiens, UniProt Q8NET8, T665A).
T3 construct: expressed in transfected cells; host or cells: HEK293T
T3 sequence (Q8NET8 1-790 T665A): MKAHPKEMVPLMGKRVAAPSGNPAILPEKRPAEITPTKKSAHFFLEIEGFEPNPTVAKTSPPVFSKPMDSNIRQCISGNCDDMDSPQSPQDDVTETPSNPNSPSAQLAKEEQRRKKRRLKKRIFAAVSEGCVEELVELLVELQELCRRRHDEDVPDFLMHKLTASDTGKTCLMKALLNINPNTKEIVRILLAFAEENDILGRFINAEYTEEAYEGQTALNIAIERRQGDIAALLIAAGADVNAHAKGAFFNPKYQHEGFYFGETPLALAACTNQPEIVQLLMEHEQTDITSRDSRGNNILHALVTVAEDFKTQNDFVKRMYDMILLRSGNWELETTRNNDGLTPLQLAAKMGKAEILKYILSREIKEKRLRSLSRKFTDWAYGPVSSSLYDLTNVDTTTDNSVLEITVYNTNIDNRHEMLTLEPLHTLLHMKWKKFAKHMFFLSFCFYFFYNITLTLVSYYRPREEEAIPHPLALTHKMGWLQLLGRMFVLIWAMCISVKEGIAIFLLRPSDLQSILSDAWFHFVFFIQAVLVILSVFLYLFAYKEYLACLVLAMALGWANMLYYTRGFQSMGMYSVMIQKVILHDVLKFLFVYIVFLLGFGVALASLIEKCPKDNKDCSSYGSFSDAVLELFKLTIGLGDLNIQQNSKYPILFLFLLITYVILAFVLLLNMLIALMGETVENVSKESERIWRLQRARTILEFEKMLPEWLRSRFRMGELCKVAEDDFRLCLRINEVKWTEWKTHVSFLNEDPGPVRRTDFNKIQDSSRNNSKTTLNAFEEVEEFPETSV
Description: whole-cell patch-clamp of hTRPV3 T665A mutant currents. To be noted: ROSA 100 μM; 2-APB; read-out: inhibition of macroscopic hTRPV3 T665A currents. As to the method:
as §1, §2

Test [5] has as its target T4, hTRPV4 (Homo sapiens, UniProt Q9HBA0).
T4 construct: expressed in transfected cells; host or cells: HEK293T
Description: whole-cell patch-clamp of hTRPV4 currents activated by GSK101. Particulars: ROSA 50 μM; agonist GSK101 100 nM; read-out: inhibition of TRPV4 currents. As to the method: as §1, §2

For test [6], the target named is T3, TRPV3 T665A. Description: single-channel inside-out patch recordings of TRPV3 T665A mutant. Particulars: ROSA 100 μM co-applied with 2-APB 50 μM; n = 4. As to the method:
as §1, §2

Test [7] deals with T5, hTRPA1 (Homo sapiens, UniProt O75762).
T5 construct: expressed in transfected cells; host or cells: HEK293T
The test can be described thus: whole-cell patch-clamp of hTRPA1 currents activated by allyl isothiocyanate. Particulars: ROSA 50 μM; agonist allyl isothiocyanate 300 μM; read-out: inhibition of TRPA1 currents. As to the method:
as §1, §2

T1 sequence (Q7Z2W7 whole entry): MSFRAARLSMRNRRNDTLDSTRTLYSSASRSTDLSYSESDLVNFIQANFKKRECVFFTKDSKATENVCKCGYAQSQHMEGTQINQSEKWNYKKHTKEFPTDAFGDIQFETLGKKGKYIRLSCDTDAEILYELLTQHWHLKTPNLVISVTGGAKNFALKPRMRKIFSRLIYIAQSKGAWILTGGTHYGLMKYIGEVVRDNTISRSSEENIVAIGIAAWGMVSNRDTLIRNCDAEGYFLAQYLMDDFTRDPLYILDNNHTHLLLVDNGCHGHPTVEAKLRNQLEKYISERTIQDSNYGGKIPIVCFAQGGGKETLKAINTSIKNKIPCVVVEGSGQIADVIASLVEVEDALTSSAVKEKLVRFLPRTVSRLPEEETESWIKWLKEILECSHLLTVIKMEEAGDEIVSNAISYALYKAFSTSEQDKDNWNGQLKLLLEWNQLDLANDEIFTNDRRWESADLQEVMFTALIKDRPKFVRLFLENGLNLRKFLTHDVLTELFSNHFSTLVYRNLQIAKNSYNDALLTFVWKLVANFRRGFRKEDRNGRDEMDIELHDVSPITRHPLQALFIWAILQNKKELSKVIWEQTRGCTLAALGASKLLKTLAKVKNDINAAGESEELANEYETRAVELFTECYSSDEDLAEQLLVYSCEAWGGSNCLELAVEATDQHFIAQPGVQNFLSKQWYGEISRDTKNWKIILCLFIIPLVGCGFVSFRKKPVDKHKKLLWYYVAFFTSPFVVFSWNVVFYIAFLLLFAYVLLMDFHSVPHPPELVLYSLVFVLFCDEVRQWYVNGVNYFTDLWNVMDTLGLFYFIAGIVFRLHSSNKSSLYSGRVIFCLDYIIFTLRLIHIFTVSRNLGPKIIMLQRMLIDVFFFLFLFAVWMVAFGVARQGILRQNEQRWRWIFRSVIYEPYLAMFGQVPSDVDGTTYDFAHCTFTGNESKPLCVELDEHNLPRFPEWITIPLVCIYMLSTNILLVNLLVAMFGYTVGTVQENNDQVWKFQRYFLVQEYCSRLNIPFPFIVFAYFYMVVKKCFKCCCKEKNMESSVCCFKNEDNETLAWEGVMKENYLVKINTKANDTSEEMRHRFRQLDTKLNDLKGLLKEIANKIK
T5 sequence (O75762 whole entry): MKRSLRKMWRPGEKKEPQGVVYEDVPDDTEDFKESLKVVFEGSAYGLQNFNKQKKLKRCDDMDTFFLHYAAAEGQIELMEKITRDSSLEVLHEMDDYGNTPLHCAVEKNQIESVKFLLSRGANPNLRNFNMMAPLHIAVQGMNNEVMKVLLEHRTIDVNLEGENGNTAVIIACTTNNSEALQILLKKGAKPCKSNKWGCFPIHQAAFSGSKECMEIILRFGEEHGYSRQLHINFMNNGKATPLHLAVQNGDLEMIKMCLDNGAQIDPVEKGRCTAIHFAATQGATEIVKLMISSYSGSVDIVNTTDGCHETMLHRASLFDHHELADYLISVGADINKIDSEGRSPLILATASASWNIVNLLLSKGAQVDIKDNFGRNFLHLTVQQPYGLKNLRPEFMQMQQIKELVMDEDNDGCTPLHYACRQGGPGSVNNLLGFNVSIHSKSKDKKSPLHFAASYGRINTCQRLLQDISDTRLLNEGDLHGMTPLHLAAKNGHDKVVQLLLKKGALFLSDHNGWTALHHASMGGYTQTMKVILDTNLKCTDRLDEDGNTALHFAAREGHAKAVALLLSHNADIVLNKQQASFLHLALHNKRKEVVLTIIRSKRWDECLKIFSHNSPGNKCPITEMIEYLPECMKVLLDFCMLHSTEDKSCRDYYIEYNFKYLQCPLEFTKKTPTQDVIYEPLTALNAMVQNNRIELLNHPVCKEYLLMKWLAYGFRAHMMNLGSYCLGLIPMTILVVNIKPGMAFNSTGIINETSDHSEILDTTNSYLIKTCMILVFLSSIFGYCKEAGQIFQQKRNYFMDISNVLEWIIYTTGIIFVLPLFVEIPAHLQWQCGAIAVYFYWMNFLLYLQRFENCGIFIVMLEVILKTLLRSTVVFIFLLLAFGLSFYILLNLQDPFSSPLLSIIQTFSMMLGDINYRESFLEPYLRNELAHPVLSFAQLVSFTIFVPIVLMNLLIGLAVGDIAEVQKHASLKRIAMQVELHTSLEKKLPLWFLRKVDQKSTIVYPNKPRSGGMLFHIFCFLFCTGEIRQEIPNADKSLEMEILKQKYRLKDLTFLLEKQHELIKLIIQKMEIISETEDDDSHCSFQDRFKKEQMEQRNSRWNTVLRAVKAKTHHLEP
T4 sequence (Q9HBA0 whole entry): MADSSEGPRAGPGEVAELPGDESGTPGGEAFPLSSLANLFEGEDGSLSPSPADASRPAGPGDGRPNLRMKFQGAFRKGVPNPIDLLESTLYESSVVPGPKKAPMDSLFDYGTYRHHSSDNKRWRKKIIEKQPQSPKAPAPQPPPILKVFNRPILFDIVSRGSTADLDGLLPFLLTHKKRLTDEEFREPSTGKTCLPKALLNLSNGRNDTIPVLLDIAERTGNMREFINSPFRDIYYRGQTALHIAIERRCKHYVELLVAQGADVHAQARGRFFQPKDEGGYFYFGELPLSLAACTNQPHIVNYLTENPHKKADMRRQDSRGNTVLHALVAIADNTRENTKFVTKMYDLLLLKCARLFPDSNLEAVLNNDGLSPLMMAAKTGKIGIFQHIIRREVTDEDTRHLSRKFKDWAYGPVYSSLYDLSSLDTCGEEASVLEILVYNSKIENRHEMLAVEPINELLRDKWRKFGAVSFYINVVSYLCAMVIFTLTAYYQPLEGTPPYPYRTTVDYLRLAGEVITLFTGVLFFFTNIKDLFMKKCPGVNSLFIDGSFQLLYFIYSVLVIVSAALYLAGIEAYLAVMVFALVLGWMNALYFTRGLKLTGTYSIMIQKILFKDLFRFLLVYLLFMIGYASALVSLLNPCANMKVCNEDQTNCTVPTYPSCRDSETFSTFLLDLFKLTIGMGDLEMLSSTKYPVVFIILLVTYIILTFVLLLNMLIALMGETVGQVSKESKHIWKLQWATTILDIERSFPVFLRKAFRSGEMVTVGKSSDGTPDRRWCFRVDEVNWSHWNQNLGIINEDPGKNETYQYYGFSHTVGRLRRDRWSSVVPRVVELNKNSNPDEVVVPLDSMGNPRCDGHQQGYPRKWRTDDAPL
T2 sequence (Q8NER1 whole entry): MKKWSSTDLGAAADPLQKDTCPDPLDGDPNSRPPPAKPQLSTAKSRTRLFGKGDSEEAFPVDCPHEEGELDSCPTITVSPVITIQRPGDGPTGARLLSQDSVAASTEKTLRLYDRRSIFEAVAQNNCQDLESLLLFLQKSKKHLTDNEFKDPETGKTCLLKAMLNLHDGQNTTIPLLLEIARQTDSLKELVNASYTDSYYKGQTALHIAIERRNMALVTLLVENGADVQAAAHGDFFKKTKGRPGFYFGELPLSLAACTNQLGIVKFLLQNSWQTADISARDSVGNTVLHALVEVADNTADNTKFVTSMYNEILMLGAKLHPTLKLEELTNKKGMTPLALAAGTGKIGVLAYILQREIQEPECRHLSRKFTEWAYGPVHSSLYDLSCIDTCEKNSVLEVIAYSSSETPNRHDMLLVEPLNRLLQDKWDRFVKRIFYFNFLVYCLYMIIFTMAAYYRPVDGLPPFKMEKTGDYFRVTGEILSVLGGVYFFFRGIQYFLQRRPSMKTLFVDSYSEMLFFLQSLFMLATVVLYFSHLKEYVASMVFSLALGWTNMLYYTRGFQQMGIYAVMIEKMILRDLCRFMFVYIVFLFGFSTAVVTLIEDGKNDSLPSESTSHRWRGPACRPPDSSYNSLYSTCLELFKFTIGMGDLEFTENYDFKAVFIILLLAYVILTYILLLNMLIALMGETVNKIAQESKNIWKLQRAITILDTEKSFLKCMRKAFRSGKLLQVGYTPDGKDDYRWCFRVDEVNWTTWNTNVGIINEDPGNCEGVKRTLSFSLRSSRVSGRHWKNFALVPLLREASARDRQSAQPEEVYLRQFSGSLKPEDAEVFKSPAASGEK

For the molecule `O=C(/C=C/c1ccc(O)c(O)c1)O[C@H](Cc1ccc(O)c(O)c1)C(=O)O` [ROSA, rosmarinic acid], the “inhibition of TRPM8 currents” value in test [1] was 0.7 ± 6.7%. In addition, in test [2], the cell death ratio was determined as 17%. Further, the inhibition – broadly, the share of the control response that was lost under treatment – at 50 µM came out at 1.8 ± 11.7% in test [3], 2 ± 7.3% in test [5] and 4.5 ± 3.6% in test [7]. For the same molecule, in test [4], the inhibition at 100 µM was 19.1%. Moreover, in test [6], the “single-channel open probability, T665A mutant” value is given as 0.69.

(Values after paper PMC12206033, “Selective inhibition of TRPV3 channel by natural rosmarinic acid and its analogs for alleviation of skin lesions through downregulation of NF-κB pathway” (The Journal of Biological Chemistry, 2025).)
